From patent US20240059688A1, “CONOLIDINE ANALOGUES AS SELECTIVE ACKR3 MODULATORS FOR THE TREATMENT OF CANCER” (Luxembourg Institute of Health (LIH), priority 2020, published 2024) come the findings set out here.

Common to all, as to assay type: cell-based
For experiment [1], the target named is T1, ACKR3 (Homo sapiens, UniProt P25106). Description: ACKR3 β-arrestin recruitment assay (PathHunter, β-galactosidase complementation). As to conditions: for Emax: read-out: ACKR3 β-arrestin % CXCL12 Emax ± SEM; for EC50: stable human ACKR3-β-arrestin-2-CHO cells, mean ± SEM, at least two independent experiments in duplicate. The method, boiled down: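 Agonist mode in PathHunter CHO cells expressing human ACKR3-β-arrestin-2, compounds added in DPBS/1% DMSO for 1.5 hr at 37° C, then detection 1 hr at room temperature, luminescence read. CXCR4 run in C2C12 cells with a 3 hr Cell Plating Reagent 4 preincubation. EC50 and % Emax from three-parameter fits, CXCL-12 as reference agonist; ≥2 independent experiments in duplicate.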
T1 sequence (P25106 whole entry): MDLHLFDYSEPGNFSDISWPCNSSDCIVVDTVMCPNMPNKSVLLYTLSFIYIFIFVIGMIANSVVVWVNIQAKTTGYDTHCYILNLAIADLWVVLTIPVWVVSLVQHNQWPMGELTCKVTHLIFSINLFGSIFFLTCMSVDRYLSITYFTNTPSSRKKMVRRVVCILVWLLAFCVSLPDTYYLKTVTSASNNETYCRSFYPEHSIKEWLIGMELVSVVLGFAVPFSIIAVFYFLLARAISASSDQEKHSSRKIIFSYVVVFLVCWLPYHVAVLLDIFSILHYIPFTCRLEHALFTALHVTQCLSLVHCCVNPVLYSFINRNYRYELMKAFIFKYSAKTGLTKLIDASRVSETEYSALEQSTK

In a further experiment the target is MOR (Homo sapiens, UniProt P35372). Description: MOR calcium mobilization agonist/antagonist screen (CHO-RD-HGA16 cells). As to conditions: single concentration; for Emax: CHO-RD-HGA16, agonist screen, control agonist DAMGO. Set-up: host or cells: CHO-RD-HGA16. For orientation: Calcium assays in cells follow changes in intracellular calcium, usually with a dye or a luminescent sensor.
MOR, sequence (P35372 whole entry): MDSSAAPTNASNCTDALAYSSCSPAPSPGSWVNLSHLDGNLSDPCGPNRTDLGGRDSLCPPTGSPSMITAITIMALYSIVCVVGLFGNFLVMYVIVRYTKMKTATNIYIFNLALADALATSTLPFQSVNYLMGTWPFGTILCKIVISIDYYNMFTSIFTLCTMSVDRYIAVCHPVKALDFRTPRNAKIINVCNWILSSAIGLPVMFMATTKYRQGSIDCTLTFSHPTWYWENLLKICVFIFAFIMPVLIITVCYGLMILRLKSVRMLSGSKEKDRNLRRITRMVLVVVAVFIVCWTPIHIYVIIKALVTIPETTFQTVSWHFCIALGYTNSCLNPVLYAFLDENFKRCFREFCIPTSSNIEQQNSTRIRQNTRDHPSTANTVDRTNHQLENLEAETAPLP

Experiment [2] has as its target T1, ACKR3. Description: ACKR3 internalization assay by flow cytometry in U87-ACKR3 cells. Set-up: expressed in transfected cells; host or cells: U87-ACKR3 (ACKR3-negative U87 as control). The conditions noted are these: 45 minutes at 37° C., anti-ACKR3 mAb 11G8, FIG. 6 section A. Here is the method:
For determination of receptor surface expression levels by flow cytometry, U87-ACKR3 cells were stimulated with WW-1 or WW-12 (50, 10, 5 1 μM) or BAM22 or ctrl peptides (1 μM) for 45 minutes at 37° C. The remaining surface-bound ligands were then removed by a brief wash with 150 mM NaCl, 50 mM glycine, pH 3 and twice with FACS buffer. Cell surface levels of ACKR3 were then measured by flow cytometry using a saturating concentration of receptor-specific mAb (clones 11G8) and a secondary phycoerythrin-conjugated F(ab′)2 fragment anti-mouse IgG (Jackson ImmunoResearch). Dead cells were excluded using the Zombie NIR fixable viability dye (BioLegend, catalog #423106, dilution 1:2000). Mean fluorescence intensity was quantified on a Novocyte Quanteon flow cytometer (ACEA Biosciences) using NovoExpress 1.4.1 (ACEA Biosciences).
In general terms: A flow cytometer gives signals particle by particle.

For experiment [3], the target named is T1, ACKR3. Description: Ligand-induced ACKR3 delivery to early endosomes (NanoBRET, U87 cells). Set-up: expressed in transfected cells; host or cells: U87-ACKR3 (ACKR3-negative U87 as control). The conditions noted are these: ACKR3-Nanoluciferase / FYVE-mNeonGreen, FIG. 6 section B. On the procedure:
Ligand-induced receptor-arrestin delivery to early endosomes was monitored by NanoBRET. In brief, 1.2×10^6 U87 cells were seeded in 10-cm dishes and co-transfected with plasmids encoding ACKR3, C-terminally tagged with Nanoluciferase and FYVE domain of endofin interacting with phosphatidylinositol 3-phosphate (PI3P) in early endosomes46,47, N-terminally tagged with mNeonGreen. 48h post-transfection, cells were distributed into black 96-well plates (1×10^5 cells per well) and treated with full-length or processed chemokines. After 2-hour incubation at 37° C., coelenterazine H (10 μM) was added and donor emission (460 nm) and acceptor emission (535 nm) were immediately measured on a GloMax plate reader (Promega).
In general terms: In BRET a luciferase serves as donor, and the signal depends on an acceptor being close.

Broadly, the Emax is the size of the effect at its maximum, as opposed to the concentration needed. As a reminder, the EC50 is the concentration at which the effect is half-maximal. A low value points to an effect from little substance. In the case of `C/C=C1/CN2CC[C@H]1C(=O)c1[nH]c3ccccc3c1C2` [WW-1, (4E,5R)-4-ethylidene-1,4,5,7-tetrahydro-2,5-ethanoazocino[4,3-b]indol-6(3H)-one], at ACKR3 [1], the Emax came out at 181 ± 4% and the EC50 came to 27.3 ± 0.44 µM. Further, on MOR, the Emax amounted to 0%. The “MOR Calcium % DAMGO Inhibition” value on MOR (antagonist screen, vs EC60 of DAMGO) was found to be 3%. The “ACKR3 internalization from the plasma membrane” value on ACKR3 [2] was “able to induce receptor internalization”. The “ACKR3 delivery to the endosomes” value on ACKR3 [3] is recorded as “delivery to the endosomes”.
Turning to `C/C=C1/CN(CCCCC)CC[C@H]1C(=O)c1cc2ccccc2[nH]1` [WW-12, [(3E,4R)-3-ethylidene-1-pentylpiperidin-4-yl](1H-indol-2-yl)methanone], the Emax on ACKR3 [1] is 140 ± 11%; on MOR, 11%. The same compound showed a concentration for a half-maximal effect (EC50) at ACKR3 [1] of 0.353 ± 0.019 µM. On ACKR3 [2], the “ACKR3 internalization from the plasma membrane” value was “able to induce receptor internalization”. At ACKR3 [3], the “ACKR3 delivery to the endosomes” value is “delivery to the endosomes”.
